Target: T1, PDE5A1 (Homo sapiens, UniProt O76074)
T1 construct: from tissue; host or cells: human platelets from fresh donor blood (10,000 x g supernatant of sonicated lysate)
Assay: Inhibition of type 5 phosphodiesterase (PDE5) activity, modified SPA test with human platelet lysate
Type: biochemical
Settings: 0.5 μM cGMP, read-out: PDE5A1 inhibitory values [measured as −log IC50 (mol/l)] (converted)
In short: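 Scintillation proximity assay with [3H]cGMP tracer at 0.5 μM total cGMP, stopped after 15 min with beads containing IBMX. PDE3 and PDE2 activities suppressed with motapizone (1 μM) and a PDE2 inhibitor (10 nM). Human platelet supernatant served as the enzyme, with compound preincubated 5 min at 37° C; IC50 values from concentration-effect curves.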

SMILES	IC50 [nM]
COCC(=O)N1C[C@@H](O)[C@H](NC(=O)c2c(C)[nH]c3c(-c4cc(OC)c(F)cc4OCC4CC4)ncnc23)C1 (relative stereo) [Example E185, 4-[2-(Cyclopropylmethoxy)-4-fluoro-5-methoxyphenyl]-N-[(3R*,4R*)-4-hydroxy-1-(methoxyacetyl)pyrrolidin-3-yl]-6-methyl-5H-pyrrolo[3,2-d]pyrimidine-7-carboxamide]	< 1
CC(=O)N1CC[C@@H](NC(=O)c2c(C)[nH]c3c(-c4c(OCC5CC5)ccc5c4OCO5)ncnc23)C1 [Example E13, N-[(3R)-1-acetylpyrrolidin-3-yl]-4-[5-(cyclopropylmethoxy)-1,3-benzodioxol-4-yl]-6-methyl-5H-pyrrolo[3,2-d]pyrimidine-7-carboxamide]	< 1
COCC(=O)N[C@H]1CC[C@@H](NC(=O)c2c(C)[nH]c3c(-c4cc(C)c(F)cc4OCC4CC4)ncnc23)CC1 [Example E127, 4-[2-(Cyclopropylmethoxy)-4-fluoro-5-methylphenyl]-N-{cis-4-[(methoxyacetyl)amino]cyclohexyl}-6-methyl-5H-pyrrolo[3,2-d]pyrimidine-7-carboxamide]	< 1
CC(=O)N[C@H]1CC[C@H](NC(=O)c2c(C)[nH]c3c(-c4cc(C(C)=O)ccc4OCC4CC4)ncnc23)CC1 [Example E166, N-[trans-4-(Acetylamino)cyclohexyl]-4-[5-acetyl-2-(cyclopropylmethoxy)phenyl]-6-methyl-5H-pyrrolo[3,2-d]pyrimidine-7-carboxamide]	< 1

The remaining lines, values ahead:

IC50 [nM]	SMILES
< 1	COCC(=O)N1CCC(NC(=O)c2c(C)[nH]c3c(-c4c(OCC5CC5)ccc5c4OCO5)ncnc23)CC1 [Example E3, 4-[5-(Cyclopropylmethoxy)-1,3-benzodioxol-4-yl]-N-[1-(methoxyacetyl)piperidin-4-yl]-6-methyl-5H-pyrrolo[3,2-d]pyrimidine-7-carboxamide]
1 to 10	CCOc1ccc(F)cc1-c1ncnc2c(C(=O)NC3CCN(C(=O)CO)CC3)c(C)[nH]c12 [Example F32]
< 1	COc1ccc(-c2ncnc3c(C(=O)NC4CCN(C(C)=O)CC4)c(C)[nH]c23)c(OCC2CC2)c1 [Example E55, N-(1-acetylpiperidin-4-yl)-4-[2-(cyclopropylmethoxy)-4-methoxyphenyl]-6-methyl-5H-pyrrolo[3,2-d]pyrimidine-7-carboxamide]
< 1	COc1ccc(-c2ncnc3c(C(=O)NC4CCN(C(=O)CO)CC4)c(C)[nH]c23)c(OCC2CC2)c1 [Example F34, 4-[2-(Cyclopropylmethoxy)-4-methoxyphenyl]-N-(1-glycoloylpiperidin-4-yl)-6-methyl-5H-pyrrolo[3,2-d]pyrimidine-7-carboxamide]
< 1	COc1ccc(OCC2CC2)c(-c2ncnc3c(C(=O)N[C@@H]4CCN(C(C)=O)C[C@H]4O)c(C)[nH]c23)c1 (relative stereo) [Example E78, N-[(3R*,4R*)-1-acetyl-3-hydroxypiperidin-4-yl]-4-[2-(cyclopropylmethoxy)-5-methoxyphenyl]-6-methyl-5H-pyrrolo[3,2-d]pyrimidine-7-carboxamide]

Source: patent US9376442B2, “Methylpyrrolopyrimidinecarboxamides” (Takeda GmbH, priority 2009, dated 2016)
